Reference: ChEMBL document CHEMBL6177939, “The role of silicon in drug discovery: a review” (RSC Med Chem, 2024)
≈ marks a conversion by molar mass, not a printed value.

Legend:
[1] = Acute toxicity in ip dosed Sprague-Dawley rat assessed as lethal dose; format: organism-based; settings: in vivo
[2] = In vivo inhibition of AChE activity in Sprague-Dawley rat brain assessed as effective dose; format: functional
Acetylcholinesterase = Acetylcholinesterase (Homo sapiens, UniProt P22303); assay: Binding affinity to AChE (unknown origin) using acetylthiocholine iodide as substrate assessed as inhibition constant by Ellman's method
Chain of Acetylcholinesterase (P22303 whole entry): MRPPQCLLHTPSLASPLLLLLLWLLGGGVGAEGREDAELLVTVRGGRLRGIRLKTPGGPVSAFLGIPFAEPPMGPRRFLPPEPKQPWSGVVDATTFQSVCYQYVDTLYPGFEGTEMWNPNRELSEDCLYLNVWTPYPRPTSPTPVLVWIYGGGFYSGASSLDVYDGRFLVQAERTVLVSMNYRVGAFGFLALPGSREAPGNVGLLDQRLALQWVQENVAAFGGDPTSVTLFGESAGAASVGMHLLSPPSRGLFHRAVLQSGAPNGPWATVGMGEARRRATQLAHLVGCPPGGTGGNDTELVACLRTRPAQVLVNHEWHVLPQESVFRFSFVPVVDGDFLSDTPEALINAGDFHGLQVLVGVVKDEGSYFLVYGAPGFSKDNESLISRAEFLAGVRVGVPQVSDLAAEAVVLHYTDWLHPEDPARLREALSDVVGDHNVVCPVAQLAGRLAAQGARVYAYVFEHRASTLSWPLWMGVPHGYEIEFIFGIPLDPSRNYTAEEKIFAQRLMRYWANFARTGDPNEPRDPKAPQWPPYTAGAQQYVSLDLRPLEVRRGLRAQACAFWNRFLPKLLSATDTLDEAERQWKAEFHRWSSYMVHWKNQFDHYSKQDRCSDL

Caco-2 = assay: Antiproliferative activity against human Caco-2 cells assessed as reduction in cell growth incubated for 24 hrs; format: functional, cell-based; settings: Caco-2, 24 h
MCF7 = assay: Antiproliferative activity against human MCF7 cells assessed as reduction in cell growth incubated for 24 hrs; format: functional, cell-based; settings: MCF7, 24 h
NCI-H460 = assay: Antiproliferative activity against human NCI-H460 cells assessed as reduction in cell growth incubated for 24 hrs; format: functional, cell-based; settings: NCI-H460, 24 h
HT-29 [3] = assay: Antiproliferative activity against human HT-29 cells assessed as reduction in cell growth incubated for 24 hrs; format: functional, cell-based; settings: HT-29, 24 h
Histone deacetylase 5 = Histone deacetylase 5 (Homo sapiens, UniProt Q9UQL6); assay: Inhibition of human recombinant HDAC5 using Ac-Leu-Gly-Lys(Tfa)-AMC as substrate incubated for 30 mins by EnSpire plate reader analysis
Chain of Histone deacetylase 5 (Q9UQL6 whole entry): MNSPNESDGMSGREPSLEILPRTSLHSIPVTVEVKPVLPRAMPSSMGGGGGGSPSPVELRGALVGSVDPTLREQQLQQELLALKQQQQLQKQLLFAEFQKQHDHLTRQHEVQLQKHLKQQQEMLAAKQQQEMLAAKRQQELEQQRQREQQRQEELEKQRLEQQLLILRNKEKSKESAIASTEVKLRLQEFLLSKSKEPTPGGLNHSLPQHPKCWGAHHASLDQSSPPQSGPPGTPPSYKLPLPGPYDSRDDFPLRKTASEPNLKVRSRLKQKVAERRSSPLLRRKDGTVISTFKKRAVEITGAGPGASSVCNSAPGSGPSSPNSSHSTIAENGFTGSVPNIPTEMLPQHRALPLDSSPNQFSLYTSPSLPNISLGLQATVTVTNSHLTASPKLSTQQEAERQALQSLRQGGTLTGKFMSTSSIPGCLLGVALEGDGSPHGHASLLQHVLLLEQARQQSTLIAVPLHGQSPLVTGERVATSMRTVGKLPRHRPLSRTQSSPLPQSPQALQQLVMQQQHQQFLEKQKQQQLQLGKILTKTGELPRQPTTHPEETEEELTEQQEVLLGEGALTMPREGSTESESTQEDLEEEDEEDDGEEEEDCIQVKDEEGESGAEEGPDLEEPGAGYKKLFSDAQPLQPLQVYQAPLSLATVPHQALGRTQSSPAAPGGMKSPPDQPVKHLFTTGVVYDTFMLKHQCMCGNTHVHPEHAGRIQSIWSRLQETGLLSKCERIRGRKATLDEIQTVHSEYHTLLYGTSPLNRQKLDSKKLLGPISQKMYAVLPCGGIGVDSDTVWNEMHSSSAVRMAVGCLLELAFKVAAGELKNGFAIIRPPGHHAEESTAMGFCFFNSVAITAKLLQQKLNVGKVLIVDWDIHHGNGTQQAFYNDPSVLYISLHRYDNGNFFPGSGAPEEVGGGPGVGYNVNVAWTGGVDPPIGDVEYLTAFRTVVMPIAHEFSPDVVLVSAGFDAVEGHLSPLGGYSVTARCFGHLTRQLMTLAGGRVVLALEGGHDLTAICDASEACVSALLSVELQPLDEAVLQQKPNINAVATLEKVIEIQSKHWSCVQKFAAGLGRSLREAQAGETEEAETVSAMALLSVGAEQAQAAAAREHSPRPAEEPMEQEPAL

Histone deacetylase 2 = Histone deacetylase 2 (Homo sapiens, UniProt Q92769)
Chain of Histone deacetylase 2 (Q92769 whole entry): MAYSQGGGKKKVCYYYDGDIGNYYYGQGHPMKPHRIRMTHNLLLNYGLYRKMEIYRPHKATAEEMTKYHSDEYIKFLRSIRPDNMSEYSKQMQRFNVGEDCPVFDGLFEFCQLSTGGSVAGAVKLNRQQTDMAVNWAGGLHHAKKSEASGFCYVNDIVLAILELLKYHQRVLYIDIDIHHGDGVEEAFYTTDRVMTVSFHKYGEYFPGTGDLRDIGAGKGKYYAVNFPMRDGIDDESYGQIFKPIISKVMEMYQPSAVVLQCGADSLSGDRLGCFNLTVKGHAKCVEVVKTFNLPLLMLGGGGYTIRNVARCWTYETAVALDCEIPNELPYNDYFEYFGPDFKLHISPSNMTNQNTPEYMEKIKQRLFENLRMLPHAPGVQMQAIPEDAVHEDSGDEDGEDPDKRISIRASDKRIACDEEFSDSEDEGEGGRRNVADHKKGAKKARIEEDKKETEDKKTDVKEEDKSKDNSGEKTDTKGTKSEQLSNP

Histone deacetylase 1 = Histone deacetylase 1 (Homo sapiens, UniProt Q13547); assay: Inhibition of human recombinant HDAC1 using Ac-Leu-Gly-Lys(Ac)-AMC as substrate incubated for 30 mins by EnSpire plate reader analysis
Chain of Histone deacetylase 1 (Q13547 whole entry): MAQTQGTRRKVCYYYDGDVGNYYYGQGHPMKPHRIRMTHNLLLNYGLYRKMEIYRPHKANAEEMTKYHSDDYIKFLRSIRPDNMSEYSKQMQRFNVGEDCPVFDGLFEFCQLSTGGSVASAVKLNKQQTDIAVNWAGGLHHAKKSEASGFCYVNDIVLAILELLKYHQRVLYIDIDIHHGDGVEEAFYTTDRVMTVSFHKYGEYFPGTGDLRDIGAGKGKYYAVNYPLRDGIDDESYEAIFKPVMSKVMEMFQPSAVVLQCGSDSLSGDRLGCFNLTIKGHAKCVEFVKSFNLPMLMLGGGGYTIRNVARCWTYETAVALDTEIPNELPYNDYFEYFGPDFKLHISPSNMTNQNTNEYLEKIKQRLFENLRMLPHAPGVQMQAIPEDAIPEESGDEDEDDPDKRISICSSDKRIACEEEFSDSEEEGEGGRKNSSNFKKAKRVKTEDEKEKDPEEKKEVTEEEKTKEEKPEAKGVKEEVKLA

Histone deacetylase 4 = Histone deacetylase 4 (Homo sapiens, UniProt P56524); assay: Inhibition of human recombinant HDAC4 using Ac-Leu-Gly-Lys(Tfa)-AMC as substrate incubated for 30 mins by EnSpire plate reader analysis
[4] = molecular target: Protein deacetylase HDAC6 (Homo sapiens, UniProt Q9UBN7); assay: Inhibition of human recombinant HDAC6 using Ac-Leu-Gly-Lys(Ac)-AMC as substrate incubated for 30 mins by EnSpire plate reader analysis
Chain of Protein deacetylase HDAC6 (Q9UBN7 whole entry): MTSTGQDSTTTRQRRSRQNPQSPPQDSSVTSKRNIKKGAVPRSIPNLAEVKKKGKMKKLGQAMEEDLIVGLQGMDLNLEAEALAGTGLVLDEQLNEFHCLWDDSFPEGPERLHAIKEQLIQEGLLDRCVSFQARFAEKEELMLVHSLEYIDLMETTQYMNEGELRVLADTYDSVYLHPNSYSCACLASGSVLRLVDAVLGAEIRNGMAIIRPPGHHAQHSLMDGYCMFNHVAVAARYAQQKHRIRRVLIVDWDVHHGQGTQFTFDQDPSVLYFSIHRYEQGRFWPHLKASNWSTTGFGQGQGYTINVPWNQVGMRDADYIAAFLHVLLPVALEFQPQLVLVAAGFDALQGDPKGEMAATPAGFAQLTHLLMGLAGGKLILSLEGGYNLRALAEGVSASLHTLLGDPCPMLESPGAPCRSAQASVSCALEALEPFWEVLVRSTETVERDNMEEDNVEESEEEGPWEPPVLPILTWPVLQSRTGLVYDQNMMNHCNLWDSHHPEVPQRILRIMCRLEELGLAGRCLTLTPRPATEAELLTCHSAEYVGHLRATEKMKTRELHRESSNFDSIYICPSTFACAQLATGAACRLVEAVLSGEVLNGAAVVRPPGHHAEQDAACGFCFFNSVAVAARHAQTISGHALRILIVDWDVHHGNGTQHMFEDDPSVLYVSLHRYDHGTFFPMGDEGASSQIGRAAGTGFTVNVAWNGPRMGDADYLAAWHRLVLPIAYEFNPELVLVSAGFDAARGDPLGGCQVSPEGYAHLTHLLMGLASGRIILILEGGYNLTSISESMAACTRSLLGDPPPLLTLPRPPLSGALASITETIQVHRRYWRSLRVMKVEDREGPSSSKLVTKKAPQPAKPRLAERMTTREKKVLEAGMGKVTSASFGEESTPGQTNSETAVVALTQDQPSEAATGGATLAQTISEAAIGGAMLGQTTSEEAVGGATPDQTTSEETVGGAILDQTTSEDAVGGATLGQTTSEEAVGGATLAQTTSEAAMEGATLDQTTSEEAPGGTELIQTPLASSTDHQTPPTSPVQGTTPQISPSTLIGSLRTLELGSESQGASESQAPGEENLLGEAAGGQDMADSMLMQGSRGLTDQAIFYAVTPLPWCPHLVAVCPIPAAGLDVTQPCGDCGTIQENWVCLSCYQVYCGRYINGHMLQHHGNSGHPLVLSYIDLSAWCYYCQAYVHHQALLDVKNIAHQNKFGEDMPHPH

Interstitial collagenase = Interstitial collagenase (Homo sapiens, UniProt P03956); assay: Inhibition of MMP-1 (unknown origin)
Chain of Interstitial collagenase (P03956 whole entry): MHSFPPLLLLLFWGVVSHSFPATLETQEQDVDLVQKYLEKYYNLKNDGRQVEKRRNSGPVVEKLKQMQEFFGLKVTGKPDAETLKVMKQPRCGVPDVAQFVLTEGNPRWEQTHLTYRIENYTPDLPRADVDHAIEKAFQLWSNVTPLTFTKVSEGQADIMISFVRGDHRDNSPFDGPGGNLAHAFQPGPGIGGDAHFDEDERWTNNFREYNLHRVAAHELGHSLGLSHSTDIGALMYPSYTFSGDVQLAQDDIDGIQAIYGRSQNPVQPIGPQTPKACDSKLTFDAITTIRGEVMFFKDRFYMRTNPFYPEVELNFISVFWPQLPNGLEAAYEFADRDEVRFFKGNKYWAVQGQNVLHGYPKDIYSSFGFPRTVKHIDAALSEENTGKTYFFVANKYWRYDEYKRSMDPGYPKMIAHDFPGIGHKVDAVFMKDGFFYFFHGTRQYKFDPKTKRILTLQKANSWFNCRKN

MG-22A = assay: Cytotoxicity against mouse MG-22A cells assessed as reduction in cell growth by MTT assay; format: functional, cell-based
HT-1080 = assay: Cytotoxicity against human HT-1080 cells assessed as reduction in cell growth by MTT assay; format: functional, cell-based
Mus musculus = assay: Antiinflammatory activity against carrageenin-induced paw edema AKR mouse model assessed as inhibition of CPE at 0.01 micromol/kg, ip relative to control; format: functional; design: scale not given: the % may be the effect or the level left; settings: dose 0.01 µmol/kg
[5] = Inhibition of soya bean lipoxygenase; design: species or system Glycine max
Plutella xylostella = assay: Toxicity in Plutella xylostella assessed as lethal dose; format: organism-based
Mythimna separata = assay: Toxicity in Mythimna separata assessed as lethal dose; format: organism-based
Enterococcus durans = assay: Antibacterial activity against Enterococcus durans B-603 (all Russian collections of micro-organism) assessed as reduction in bacterial growth incubated for 24 hrs by broth micro-dilution method; format: functional
Bacillus subtilis = assay: Antibacterial activity against Bacillus subtilis B-407 (all Russian collections of micro-organism) assessed as reduction in bacterial growth incubated for 24 hrs by broth micro-dilution method; format: functional
Plasmodium falciparum [6] = assay: Antimalarial activity against chloroquine-sensitive Plasmodium falciparum NF54 assessed as reduction in parasite growth; format: functional, organism-based
[7] = Antiproliferative activity against human WHCO1 cells assessed as reduction in cell viability incubated for 48 hrs by MTT assay; format: functional, cell-based; settings: WHCO1, 48 h
Plasmodium falciparum [8] = assay: Antimalarial activity against […] Plasmodium falciparum Dd2 assessed as reduction in parasite growth; format: functional, organism-based
Bel-7402 = assay: Cytotoxicity against human Bel-7402 cells assessed as inhibition of cell growth at 5 ug/ml relative to control; format: functional
HCT-8 = assay: Cytotoxicity against human HCT-8 cells assessed as inhibition of cell growth at 5 ug/ml relative to control; format: functional
HepG2 = assay: Antiproliferative activity against human HepG2 cells; format: functional, cell-based
A549 = assay: Antiproliferative activity against human A549 cells; format: functional, cell-based
Tetranychus cinnabarinus = assay: Toxicity in Tetranychus cinnabarinus assessed as lethal dose; format: organism-based
Escherichia coli = assay: Antibacterial activity against Escherichia coli B-1238 (all Russian collections of micro-organism) assessed as reduction in bacterial growth by broth micro-dilution method; format: functional
HeLa = assay: Antiproliferative activity against human Hela cells assessed as reduction in cell viability incubated for 24 hrs by MTT assay; format: functional, cell-based
MDA-MB-435 = assay: Antiproliferative activity against human MDA-MB-435 cells assessed as reduction in cell viability incubated for 24 hrs by MTT assay; format: functional, cell-based; settings: MDA-MB-435, 24 h
HT-29 [9] = assay: Antiproliferative activity against human HT-29 cells assessed as reduction in cell viability incubated for 24 hrs by MTT assay; format: functional, cell-based; settings: HT-29, 24 h

For `C[Si](C)(C)c1cccc(C(=O)C(F)(F)F)c1`, the LD50 [1] was 180 mg/kg, the ED50 [2] was 2.5 mg/kg and the Ki (Acetylcholinesterase) was 0.047 nM.

In the case of `CC(C)OC(=O)/C(=N/NC(=O)c1ccc(CO[Si](C)(C)C(C)(C)C)o1)c1ccccc1`, the IC50 (Caco-2) is reported as 40100 nM, the IC50 (MCF7) is reported as 3500 nM and the IC50 (NCI-H460) is reported as 3600 nM. It also gave an IC50 (HT-29 [3]) of 3600 nM.

Work on `C[Si](O)(O)CCCCCCC(=O)Nc1ccccc1` yielded an IC50 (Histone deacetylase 5) of 600 nM, an IC50 (Histone deacetylase 2) of 600 nM and an IC50 (Histone deacetylase 1) of 600 nM. The IC50 (Histone deacetylase 4) was 600 nM and the IC50 [4] was 600 nM.

In the case of `C[Si](C)(C)n1c(=S)c(=P(c2ccccc2)(c2ccccc2)c2ccccc2)/c1=N/c1ccccc1`, the IC50 (Interstitial collagenase) is reported as roughly 41 nM.

In the case of `CCCC[Si](CC)(CCCC)OCC[N+](C)(C)C.[I-]`, the IC50 (MG-22A) is reported as 1 µg/mL and the IC50 (HT-1080) is reported as 3 µg/mL.

Molecule `C[Si](C)(C)CCC[n+]1ccsc1N.[I-]` has an Activity (Mus musculus) of 55% and an IC50 [5] of 10 nM.

In the case of `CCS(=O)(=O)c1cccnc1-c1nc2cc(S(=O)(=O)C(F)(F)F)ccc2o1`, the LC50 (Plutella xylostella) is reported as 0.21 µg/mL (≈ 0.5 µM) and the LC50 (Mythimna separata) is reported as 4.68 µg/mL (≈ 11.1 µM).

Molecule `COc1ccc(-c2cc(CNCCC[Si-]345OCC[N+]3(CCO4)CCO5)on2)cc1` (stereo not drawn) has an MIC (Enterococcus durans) of 12.5 µg/mL (≈ 29.8 µM) and an MIC (Bacillus subtilis) of 6.2 µg/mL (≈ 14.8 µM).

Molecule `C[Si](C)(C)CNc1ccnc2cc(Cl)ccc12` has an IC50 (Plasmodium falciparum [6]) of 248 nM, an IC50 [7] of 4410 nM and an IC50 (Plasmodium falciparum [8]) of 525 nM.

`CC(C)OP(=O)(NCCC[Si-]123OCC[N+]1(CCO2)CCO3)OCCn1c(=O)c(F)cn(C2CCCO2)c1=O` (stereo not drawn) showed an inhibition at 5 µg/mL (Bel-7402) of 29.3% and an inhibition at 5 µg/mL (HCT-8) of 29.3%.

Work on `COc1ccc([Si](C)(C)[C@@H]2[C@@H](CCn3cc(CCO)nn3)O[C@]3(C(=O)N4c5c(ccc(OC)c53)C(C)=CC4(C)C)[C@H]2C)cc1` yielded an EC50 (HepG2) of 32500 nM and an EC50 (A549) of 42800 nM.

In the case of `C/C(=C(\OC(=O)C(C)(C)C)c1c(C)c(C)nn1C)c1ccc([Si](C)(C)C)cc1`, the LC50 (Tetranychus cinnabarinus) is reported as 0.062 ng/mL (≈ 0.000156 µM).

`O=C(NCCC[Si-]123OCC[N+]1(CCO2)CCO3)c1cc2c([nH]1)CCCC2` (stereo not drawn) showed an MIC (Escherichia coli) of 62.5 µg/mL (≈ 165 µM).

`CC1C[N+]23CC(C)O[Si-]2(CCC/N=C/c2cccc([N+](=O)[O-])c2)(O1)OC(C)C3` (stereo not drawn) showed an IC50 (HeLa) of 11.8 µg/mL (≈ 29 µM), an IC50 (MDA-MB-435) of 12.5 µg/mL (≈ 30.7 µM) and an IC50 (HT-29 [9]) of 12.3 µg/mL (≈ 30.2 µM).
